In ChEMBL document CHEMBL3085752, “Novel isatin-based hydroxamic acids as histone deacetylase inhibitors and antitumor agents” (Eur J Med Chem, 2013):
The source made the active and inactive calls. No cut-off for these calls is given here.

Columns and labels:
[1] = tested on: PC-3; test: Antiproliferative activity against human PC3 cells after 48 hrs by SRB assay; assay type: functional, cell-based; conditions: PC-3, 48 h
[2] = tested on: NCI-H460; test: Antiproliferative activity against human NCI-H460 cells after 48 hrs by SRB assay; assay type: functional, cell-based; conditions: NCI-H460, 48 h
[3] = molecular target: T1, Histone deacetylase (Homo sapiens) (UniProt Q13547+O15379+Q9UBN7+Q92769+Q9UQL6+Q8WUI4+Q9BY41+Q96DB2+P56524+Q9UKV0+Q969S8); test: Inhibition of HDAC in human SW620 cells assessed as acetylated histone-H4 level at 1 uM after 24 hrs by Western blotting analysis; assay type: cell-based; conditions: SW-620
[4] = tested on: MCF7; test: Antiproliferative activity against human MCF7 cells after 48 hrs by SRB assay; assay type: functional, cell-based; conditions: MCF7, 48 h
[5] = tested on: SW-620; test: Antiproliferative activity against human SW620 cells after 48 hrs by SRB assay; assay type: functional, cell-based; conditions: SW-620, 48 h
[6] = tested on: SW-620; test: Antiproliferative activity against human SW620 cells at 30 uM after 48 hrs by SRB assay; assay type: functional, cell-based
[7] = molecular target: T1, Histone deacetylase (Homo sapiens); test: Inhibition of HDAC in human SW620 cells assessed as acetylated histone-H3 level at 1 uM after 24 hrs by Western blotting analysis; assay type: cell-based; conditions: SW-620
[8] = tested on: ASPC1; test: Antiproliferative activity against human AsPC1 cells after 48 hrs by SRB assay; assay type: functional, cell-based; conditions: ASPC1, 48 h
[9] = tested on: SW-620; test: Ratio of SAHA IC50 to compound IC50 for human SW620 cells; assay type: functional
[10] = tested on: ASPC1; test: Ratio of SAHA IC50 to compound IC50 for human AsPC1 cells; assay type: functional

IC50 [1] | IC50 [2] | inhibition [3] | IC50 [4] | IC50 [5] | inhibition [7] | IC50 [8] | SMILES | Activity [6] | Ratio IC50 [9] | Ratio IC50 [10]
2.33 µM | 0.76 µM | Active | 1.56 µM | 0.49 µM | Active | 0.49 µM | CO/N=C1/C(=O)N(CCCCCCC(=O)NO)c2ccc(Cl)cc21 | Active |  | 
8.91 µM | 2.9 µM | Active | 7.79 µM | 2.32 µM | Active | 1.68 µM | CO/N=C1/C(=O)N(CCCCCCC(=O)NO)c2ccc(Br)cc21 | Active |  | 
0.35 µM | 1.19 µM | inactive | 16.7 µM | 1.07 µM | inactive | 5.48 µM | CO/N=C1/C(=O)N(CCCCCCC(=O)NO)c2ccc(C)cc21 | Active |  | 
1.67 µM | 0.75 µM | Active | 1.71 µM | 0.73 µM | Active | 1.22 µM | CO/N=C1/C(=O)N(CCCCCCC(=O)NO)c2ccccc21 | Active |  | 
19.7 µM | 7.71 µM | inactive | 1.34 µM | 3.39 µM | inactive | 4.68 µM | O=C(CCCCCCN1C(=O)/C(=N\O)c2cc([N+](=O)[O-])ccc21)NO | Active |  | 
0.85 µM | 0.85 µM | Active | 0.68 µM | 0.65 µM | Active | 1.86 µM | O=C(CCCCCCN1C(=O)/C(=N\O)c2cc(Cl)ccc21)NO | Active |  | 
0.62 µM | 2.09 µM | Active | 1.19 µM | 0.99 µM | Active | 2.44 µM | Cc1ccc2c(c1)/C(=N/O)C(=O)N2CCCCCCC(=O)NO | Active |  | 
1.69 µM | 14.3 µM | inactive | 0.94 µM | 1.35 µM | inactive | 0.84 µM | CO/N=C1\C(=O)N(CCCCCCC(=O)NO)c2ccc([N+](=O)[O-])cc21 | Active |  | 
1.15 µM | 0.97 µM | Active | 2.42 µM | 1.11 µM | Active | 0.97 µM | CO/N=C1/C(=O)N(CCCCCCC(=O)NO)c2ccc(F)cc21 | Active |  | 
1.57 µM | 1.35 µM | Active | 1.74 µM | 1.05 µM | Active | 1.82 µM | O=C(CCCCCCN1C(=O)/C(=N\O)c2cccc(Cl)c21)NO |  |  | 
2.73 µM | 1.5 µM | Active | 1.55 µM | 0.11 µM | Active | 1.72 µM | O=C(CCCCCCN1C(=O)/C(=N\O)c2cc(F)ccc21)NO | Active | 30 | 
2.21 µM | 0.97 µM | Active | 1.77 µM | 0.29 µM | Active | 0.08 µM | O=C(CCCCCCN1C(=O)/C(=N\O)c2cc(Br)ccc21)NO | Active |  | 45
0.98 µM | 0.89 µM | Active | 0.79 µM | 0.64 µM | Active | 1.1 µM | O=C(CCCCCCN1C(=O)/C(=N\O)c2ccccc21)NO | Active |  | 
0.29 µM | 0.35 µM | Active | 0.34 µM | 0.26 µM | Active | 0.63 µM | CO/N=C1/C(=O)N(CCCCCCC(=O)NO)c2c(Cl)cccc21 |  |  | 
